Source: publication PMC9389804 (Journal of Hematology & Oncology, 2022)
Several values for one entry are separate records, joined by “and”; a condition that tells them apart may be missing. Identical values can stand only once.

Assay: safety assessments (adverse events, NCI CTCAE)
[1] = Grade 3/4 hematologic TRAE, all 165 patients
[2] = TRAE G 3/4, Accelerated phase CML n=38
[3] = TRAE G 3/4, Chronic phase CML n=127
[4] = TRAE any grades, Accelerated phase CML n=38
[5] = TRAE any grades, Chronic phase CML n=127

Method: Adverse events were assessed continuously and graded according to NCI CTCAE v5.0.18. Complete blood count with differential, serum chemistries, and physical examinations were performed before the study; weekly during Cycles 1 and 2; on alternate weeks in Cycles 3 and 4; and monthly thereafter.

Cc1ccc(C(=O)Nc2ccc(CN3CCN(C)CC3)c(C(F)(F)F)c2)cc1C#Cc1cnc2[nH]ncc2c1 [olverembatinib]
Anemia [1]: 23.0% | Neutropenia [1]: 11.5% | Thrombocytopenia [1]: 51.5% | Anemia [2]: 12 (31.6) n (%) | Arthralgia [2]: 1 (2.6) n (%) | Asthenia [2]: 0 n (%) | Hematologic [2]: 26 (68.4) n (%) | Hyperbilirubinemia [2]: 1 (2.6) n (%) | Hyperglycemia [2]: 0 n (%) | Hypertriglyceridemia [2]: 1 (2.6) n (%) | Hypoalbuminemia [2]: 0 n (%) | Hypocalcemia [2]: 0 n (%) | Hypokalemia [2]: 1 (2.6) n (%) | Hyponatremia [2]: 0 n (%) | Increased alanine aminotransferase [2]: 1 (2.6) n (%) | Increased alkaline phosphatase [2]: 0 n (%) | Increased aspartate aminotransferase [2]: 2 (5.3) n (%) | Increased creatine phosphokinase [2]: 1 (2.6) n (%) | Increased γ-glutamyl transferase [2]: 0 n (%) | Leukopenia [2]: 13 (34.2) n (%) | Myalgia [2]: 0 n (%) | Neutropenia [2]: 8 (21.1) n (%) | Nonhematologic [2]: 20 (52.6) n (%) | Pain in extremity [2]: 1 (2.6) n (%) | Proteinuria [2]: 1 (2.6) n (%) | Pyrexia [2]: 4 (10.5) n (%) | Rash [2]: 0 n (%) | Sinus tachycardia [2]: 0 n (%) | Skin pigmentation [2]: 0 n (%) | Thrombocytopenia [2]: 23 (60.5) n (%) | Treatment-related adverse events [2]: 34 (89.5) n (%) | Anemia [3]: 26 (20.5) n (%) | Arthralgia [3]: 0 n (%) | Asthenia [3]: 0 n (%) | Hematologic [3]: 67 (52.8) n (%) | Hyperbilirubinemia [3]: 3 (2.4) n (%) | Hyperglycemia [3]: 1 (0.8) n (%) | Hypertriglyceridemia [3]: 11 (8.7) n (%) | Hypoalbuminemia [3]: 0 n (%) | Hypocalcemia [3]: 0 n (%) | Hypokalemia [3]: 1 (0.8) n (%) | Hyponatremia [3]: 1 (0.8) n (%) | Increased alanine aminotransferase [3]: 3 (2.4) n (%) | Increased alkaline phosphatase [3]: 1 (0.8) n (%) | Increased aspartate aminotransferase [3]: 2 (1.6) n (%) | Increased creatine phosphokinase [3]: 10 (7.9) n (%) | Increased γ-glutamyl transferase [3]: 5 (3.9) n (%) | Leukopenia [3]: 21 (16.5) n (%) | Myalgia [3]: 0 n (%) | Neutropenia [3]: 11 (8.7) n (%) | Nonhematologic [3]: 61 (48.0) n (%) | Pain in extremity [3]: 1 (0.8) n (%) | Proteinuria [3]: 5 (3.9) n (%) | Pyrexia [3]: 5 (3.9) n (%) | Rash [3]: 1 (0.8) n (%) | Sinus tachycardia [3]: 0 n (%) | Skin pigmentation [3]: 0 n (%) | Thrombocytopenia [3]: 62 (48.8) n (%) | Treatment-related adverse events [3]: 97 (76.4) n (%) | Anemia (TRAE G 3/4, Total n=165): 38 (23.0) n (%) | Arthralgia (TRAE G 3/4, Total n=165): 1 (0.6) n (%) | Asthenia (TRAE G 3/4, Total n=165): 0 n (%) | Hematologic (TRAE G 3/4, Total n=165): 93 (56.4) n (%) | Hyperbilirubinemia (TRAE G 3/4, Total n=165): 4 (2.4) n (%) | Hyperglycemia (TRAE G 3/4, Total n=165): 1 (0.6) n (%) | Hypertriglyceridemia (TRAE G 3/4, Total n=165): 12 (7.3) n (%) | Hypoalbuminemia (TRAE G 3/4, Total n=165): 0 n (%) | Hypocalcemia (TRAE G 3/4, Total n=165): 0 n (%) | Hypokalemia (TRAE G 3/4, Total n=165): 2 (1.2) n (%) | Hyponatremia (TRAE G 3/4, Total n=165): 1 (0.6) n (%) | Increased alanine aminotransferase (TRAE G 3/4, Total n=165): 4 (2.4) n (%) | Increased alkaline phosphatase (TRAE G 3/4, Total n=165): 1 (0.6) n (%) | Increased aspartate aminotransferase (TRAE G 3/4, Total n=165): 4 (2.4) n (%) | Increased creatine phosphokinase (TRAE G 3/4, Total n=165): 11 (6.7) n (%) | Increased γ-glutamyl transferase (TRAE G 3/4, Total n=165): 5 (3.0) n (%) | Leukopenia (TRAE G 3/4, Total n=165): 34 (20.6) n (%) | Myalgia (TRAE G 3/4, Total n=165): 0 n (%) | Neutropenia (TRAE G 3/4, Total n=165): 19 (11.5) n (%) | Nonhematologic (TRAE G 3/4, Total n=165): 81 (49.1) n (%) | Pain in extremity (TRAE G 3/4, Total n=165): 2 (1.2) n (%) | Proteinuria (TRAE G 3/4, Total n=165): 6 (3.6) n (%) | Pyrexia (TRAE G 3/4, Total n=165): 9 (5.5) n (%) | Rash (TRAE G 3/4, Total n=165): 1 (0.6) n (%) | Sinus tachycardia (TRAE G 3/4, Total n=165): 0 n (%) | Skin pigmentation (TRAE G 3/4, Total n=165): 0 n (%) | Thrombocytopenia (TRAE G 3/4, Total n=165): 85 (51.5) n (%) | Treatment-related adverse events (TRAE G 3/4, Total n=165): 131 (79.4%) n (%) and 131 (79.4) n (%) | Anemia [4]: 24 (63.2) n (%) | Arthralgia [4]: 8 (21.1) n (%) | Asthenia [4]: 6 (15.8) n (%) | Hematologic [4]: 36 (94.7) n (%) | Hyperbilirubinemia [4]: 13 (34.2) n (%) | Hyperglycemia [4]: 10 (26.3) n (%) | Hypertriglyceridemia [4]: 23 (60.5) n (%) | Hypoalbuminemia [4]: 6 (15.8) n (%) | Hypocalcemia [4]: 19 (50.0) n (%) | Hypokalemia [4]: 10 (26.3) n (%) | Hyponatremia [4]: 10 (26.3) n (%) | Increased alanine aminotransferase [4]: 9 (23.7) n (%) | Increased alkaline phosphatase [4]: 5 (13.2) n (%) | Increased aspartate aminotransferase [4]: 10 (26.3) n (%) | Increased creatine phosphokinase [4]: 5 (13.2) n (%) | Increased γ-glutamyl transferase [4]: 9 (23.7) n (%) | Leukopenia [4]: 19 (50.0) n (%) | Myalgia [4]: 8 (21.1) n (%) | Neutropenia [4]: 8 (21.1) n (%) | Nonhematologic [4]: 38 (100.0) n (%) | Pain in extremity [4]: 7 (18.4) n (%) | Proteinuria [4]: 19 (50.0) n (%) | Pyrexia [4]: 9 (23.7) n (%) | Rash [4]: 8 (21.1) n (%) | Sinus tachycardia [4]: 7 (18.4) n (%) | Skin pigmentation [4]: 31 (81.6) n (%) | Thrombocytopenia [4]: 33 (86.8) n (%) | Treatment-related adverse events [4]: 38 (100.0) n (%) | Anemia [5]: 66 (52.0) n (%) | Arthralgia [5]: 11 (8.7) n (%) | Asthenia [5]: 12 (9.4) n (%) | Hematologic [5]: 102 (80.3) n (%) | Hyperbilirubinemia [5]: 56 (44.1) n (%) | Hyperglycemia [5]: 33 (26.0) n (%) | Hypertriglyceridemia [5]: 72 (56.7) n (%) | Hypoalbuminemia [5]: 20 (15.7) n (%) | Hypocalcemia [5]: 45 (35.4) n (%) | Hypokalemia [5]: 32 (25.2) n (%) | Hyponatremia [5]: 28 (22.0) n (%) | Increased alanine aminotransferase [5]: 50 (39.4) n (%) | Increased alkaline phosphatase [5]: 16 (12.6) n (%) | Increased aspartate aminotransferase [5]: 49 (38.6) n (%) | Increased creatine phosphokinase [5]: 43 (33.9) n (%) | Increased γ-glutamyl transferase [5]: 38 (29.9) n (%) | Leukopenia [5]: 37 (29.1) n (%) | Myalgia [5]: 23 (18.1) n (%) | Neutropenia [5]: 18 (14.2) n (%) | Nonhematologic [5]: 127 (100.0) n (%) | Pain in extremity [5]: 14 (11.0) n (%) | Proteinuria [5]: 65 (51.2) n (%) | Pyrexia [5]: 21 (16.5) n (%) | Rash [5]: 19 (15.0) n (%) | Sinus tachycardia [5]: 23 (18.1) n (%) | Skin pigmentation [5]: 108 (85.0) n (%) | Thrombocytopenia [5]: 93 (73.2) n (%) | Treatment-related adverse events [5]: 127 (100.0) n (%) | Anemia (TRAE any grades, Total n=165): 90 (54.5) n (%) | Arthralgia (TRAE any grades, Total n=165): 19 (11.5) n (%) | Asthenia (TRAE any grades, Total n=165): 18 (10.9) n (%)
